US8465960B2 (priority 2007, dated 2013)

Experiments:
[1] = system: influenza B virus NA with Gly402Ser mutation; assay type: biochemical
[2] = target: influenza B virus NA with Ser250Gly mutation (Influenza B virus, UniProt P27907, S248G); assay type: biochemical
[3] = target: influenza B virus NA with Asp198Asn mutation (Influenza B virus, UniProt P27907, D196N)
[4] = target: influenza B virus NA with Ile222Thr mutation (UniProt P03474, I221T, species not given)

Compound: CCOC(=O)C1=C[C@@H](OC(CC)CC)[C@H](NC(C)=O)[C@@H](N)C1 [oseltamivir]
- increase of IC50 of posttreatment isolate compared to virus isolated before treatment [1]: 3.9 fold
- effect of mutation on sensitivity [2]: did not reduce sensitivity
- reduction in drug sensitivity compared with median IC50 of type B viruses [3]: 3-4 fold
- reduction in sensitivity compared with median IC50 of type B viruses [4]: 6-7 fold
